The test system of this test is beet armyworm (Spodoptera exigua). Put plainly: Test C: control of beet armyworm on corn (maize) plant, foliar spray. The settings on record: sprayed at 50 ppm; corn (maize) plant pre-infested with 10-15 1-day-old larvae; visually rated as in Test A. Format: in vivo. The method, then:
Test compounds were formulated using a solution containing 10% acetone, 90% water and 300 ppm X-77® Spreader Lo-Foam Formula non-ionic surfactant containing alkylarylpolyoxyethylene, free fatty acids, glycols and isopropanol (Loveland Industries, Inc.), unless otherwise indicated. The formulated compounds were applied in 1 mL of liquid through a SUJ2 atomizer nozzle with ⅛ JJ custom body (Spraying Systems Co,) positioned 1.27 cm (0.5 inches) above the top of each test unit. All experimental compounds in this screen were sprayed at 250 ppm and replicated three times. After spraying of the formulated test compound, each test unit was allowed to dry for 1 hour and then a black, screened cap was placed on top. The test units were held for 6 days in a growth chamber at 25° C. and 70% relative humidity. Plant feeding damage was then visually assessed. For evaluating control of beet armyworm (Spodoptera exigua) the test unit consisted of a small open container with a 4-5-day-old corn (maize) plant inside. This was pre-infested with 10-15 1-day-old larvae on a piece of insect diet by use of a core sampler as described for Test A. Test compounds were formulated and sprayed at 50 ppm as described for Test A. The applications were replicated three times. After spraying, the test units were maintained in a growth chamber and then visually rated as described for Test A.

Bounds are passed on as bounds.

For the molecule `CC1=C(NC(=O)c2cc(C(F)(F)F)nn2-c2ncccc2Cl)C(C(=O)NC(C)C)CS1` (stereo not shown) [Compound 1, 1-(3-Chloro-2-pyridinyl)-N-[4,5-dihydro-2-methyl-4-[[(1-methylethyl)amino]carbonyl]-3-thienyl]-3-(trifluoromethyl)-1H-pyrazole-5-carboxamide], the “feeding damage (very good levels of plant protection)” value was no more than 20%.
